Measurements reported in patent US20240336615A1, “CYCLOPROPYL-(HETERO)ARYL-SUBSTITUTED ETHYL-SULFOXIME-PYRIDINE DERIVATIVES” (Boehringer Ingelheim Vetmedica GmbH, priority 2023, published 2024).

What was measured:
Laodelphax striatellus = experiment: Insecticidal test on Laodelphax striatellus (Example 16); assay type: in vivo; conditions: 192 h, rice seedling dip, 3rd-instar nymphs, 8 days after inoculation, read-out: activity level (corrected mortality rate)
Procedure: The compounds of formula (I), (Ia) and/or (Ib) of the present invention or salts thereof are separately dispersed in water and diluted to 500 ppm and 50 ppm. Rice plant seedlings are dipped in the dispersion for about 30 seconds. After air dried, the seedlings are put into a separate glass test tube and inoculated with ten 3rd-instar nymphs of Laodelphax striatellus and then the glass test tube is kept in a room at 25° C. 8 days after the inoculation, the numbers of the dead and alive insects are counted. The corrected mortality rate is calculated according to the following formula and the insecticidal activity is evaluated according to the following criteria.

adult C. felis fleas [1] = experiment: Ingestion activity against adult Ctenocephalides felis, membrane feeding, motility (Example 6); conditions: 48 h, bovine blood via artificial membrane, 48h post treatment, read-out: EC50 (ingestion activity, % motility reduction)
Procedure: Compounds of formulae (I), (Ia) and/or (Ib) dissolved in 100% DMSO are added to bovine blood and offered via an artificial membrane feeding system to adult C. felis fleas. The motility of fleas is then visually inspected 48h post treatment. Efficacy is expressed in % motility reduction compared to controls containing blood treated with DMSO only. A dose response series is implemented to determine EC50 values.

Plutella xylostella = experiment: Insecticidal test on Plutella xylostella (Example 15); assay type: in vivo; conditions: 144 h, Chinese cabbage seedling dip, 6 days after dip treatment, read-out: activity level (corrected mortality rate)
Procedure: The compounds of formula (I), (Ia) and/or (Ib) of the present invention or salts thereof are separately dispersed in water and diluted to 500 ppm and 50 ppm. Ten adults of Plutella xylostella are released onto Chinese cabbage seedlings and allowed to lay eggs thereon. 2 days after the release of the adults, the seedling is dipped in the dispersion for about 30 seconds. After air dried, the seedling is kept in a room at 25° C. 6 days after the dip treatment, the numbers of the dead and alive insects are counted. The corrected mortality rate is calculated according to the following formula and the insecticidal activity is evaluated according to the following criteria.

[2] = test system: adult R. sanguineus ticks; experiment: Contact activity against adult Rhipicephalus sanguineus (Example 5); conditions: coated vials, 48 hours post-treatment, read-out: EC50 (contact activity, percentage mortality)
Procedure: Compounds of formulae (I), (Ia) and/or (Ib) formulated in 100% DMSO are diluted in a solution containing acetone and Triton X-100 (0.02%). The resulting formulation is used to coat the inner walls of glass scintillation vials and the filter paper covering the cap of the vial. Once dried, ten adult R. sanguineus ticks are added to the vials. The vials are incubated at 24° C., 95% relative humidity, and 12 hours of light/12 hours of dark until evaluation. Ticks are visually evaluated for mortality at 48 hours post-treatment. Compound efficacy at a given dose is expressed as percentage mortality. A dose response series is implemented to determine EC50 values.

Myzus persicae = experiment: Insecticidal test on Myzus persicae (Example 17); assay type: in vivo; conditions: 144 h, foliar application on Chinese cabbage, 6 days after application, read-out: control efficacy level (control rate)
From the text: The compounds of formula (I), (Ia) and/or (Ib) of the present invention or salts thereof are separately dispersed in water and diluted to 500 ppm and 50 ppm. Chinese cabbage plants are planted in plastic pots (diameter: 8 cm, height: 8 cm). Aphids (Myzus persicae) are propagated on the plants and then the number of surviving aphids is counted. The dispersion is applied to the foliage of the potted plants. After the plants are air dried, these are kept in a greenhouse. 6 days after the application, the number of the alive insects is counted on the plants. The control rate is calculated according to the following formula and the control efficacy is evaluated according to the following criteria. [formula] • Ta: the number of alive insects before the foliar application in a treated plot • T: the number of alive insects after the foliar application in a treated plot • Ca: the number of alive insects before the foliar application in an untreated plot • C: the number of alive insects after the foliar application in an untreated plot • A: the control rate is 100% • B: the control rate is 90 to 99% • C: the control rate is 80 to 89% • D: the control rate is 50 to 79%

adult C. felis fleas [3] = experiment: Ingestion activity against adult Ctenocephalides felis, membrane feeding, alternative method (Examples 7 and 13); conditions: Ctenocephalides felis
Procedure: Selected compounds of formula (I), (Ia) and (Ib) and compound “125” of WO 2021/033141 dissolved in 100% DMSO are diluted in bovine blood with sodium heparin anti-coagulant. The resulting formulation is offered via an artificial membrane feeding system to approximately 15 adult C. felis fleas previously dispensed into 24-well plates. The plates are then incubated in a double-chambered device. Visual evaluation for mortality is performed at 48 hours post-treatment. Compound efficacy at a given dose is expressed as percentage mortality and determined by normalization to positive and negative controls. A dose response series is implemented to determine EC50 values.
Compounds of formulae (I), (Ia) and/or (Ib) dissolved in 100% DMSO are diluted in bovine blood with sodium heparin anti-coagulant. The resulting formulation is offered via an artificial membrane feeding system to approximately 15 adult C. felis fleas previously dispensed into 24-well plates. The plates are then incubated in a double-chambered device. Visual evaluation for mortality is performed at 48 hours post-treatment. Compound efficacy at a given dose is expressed as percentage mortality and determined by normalization to positive and negative controls. A dose response series is implemented to determine EC50 values.

[4] = test system: adult Ctenocephalides felis fleas; experiment: Contact activity against adult Ctenocephalides felis (Example 4); conditions: adult C. felis, coated pipe cleaner in vial, 72 hours post-treatment, read-out: EC50 (contact activity, percentage mortality)
Procedure: Compounds of formulae (I), (Ia) and/or (Ib) dissolved in 100% DMSO are diluted in acetone to a desired concentration. The resulting formulation is used to coat the fibers of a 0.5-inch-long piece of pipe cleaner placed in a glass scintillation vial. The vial is capped with a rubber gasket and filter paper insert. After the acetone has evaporated, ten adult Ctenocephalides felis fleas are added to each vial. The vials are then incubated at 22° C., 80% relative humidity, and 12 hours of light/12 hours of dark until a visual evaluation for mortality is performed at 72 hours post-treatment. Compound efficacy at a given dose is expressed as percentage mortality and adjusted to remove background mortality observed in control vials containing DMSO only. A dose response series of treated vials is implemented to determine EC50 values.

Spodoptera litura = experiment: Insecticidal test on Spodoptera litura (Example 14); assay type: in vivo; conditions: foliar, 192 h, cabbage leaf dip, 2nd-instar larvae, 8 days after inoculation, read-out: activity level (corrected mortality rate)
Procedure: The compounds of formula (I), (Ia) and/or (Ib) of the present invention or salts thereof are separately dispersed in water and diluted to 500 ppm and 50 ppm. Cabbage leaves are dipped in the dispersion for about 30 seconds. After air dried, the leaves are placed in a plastic Petri dish with a diameter of 9 cm and inoculated with ten 2nd-instar larvae of Spodoptera litura, after which the dish is closed and then allowed to stand in a room at 25° C. 8 days after the inoculation, the numbers of the dead and alive insects are counted. The corrected mortality rate is calculated according to the following formula and the insecticidal activity is evaluated according to the following criteria.
[formula] [formula] • A: the corrected mortality rate is 100% • B: the corrected mortality rate is 90 to 99% • C: the corrected mortality rate is 80 to 89% • D: the corrected mortality rate is 50 to 79%

A. aegypti L1 larvae = experiment: Activity against larvae of Aedes aegypti (Example 3); conditions: 48 h at 27° C., read-out: EC50 (percentage of mortality, larvae)
Procedure: Eight A. aegypti L1 larvae in a total volume of 64 μL water are added to 384-well microplates containing compounds of formulae (I), (Ia) and/or (Ib) formulated in 100% DMSO. The plates are incubated for 48 h at 27° C. Individual well images are acquired and analyzed using a pipeline to quantitatively assess the amount of larvae biomass accumulating at the bottom of the well. The efficacy of a compound at a given dose is expressed as “percentage of mortality” and determined by comparison to average biomass descriptors of positive and negative control wells containing 1.0 μM Fipronil or DMSO only, respectively. Dose response assay are conducted to determine an EC50 value.

[5] = adult C. felis, bovine blood with sodium heparin, membrane feeding, 48 hours post-treatment, read-out: EC50 (ingestion activity, percentage mortality, alternative method)
[6] = alternative method according to Example 7, mortality at 48 hours post-treatment, read-out: C. felis membrane feeding (ingestion/blood feeding) activity EC50

SMILES	mortality at 500 ppm (Laodelphax striatellus)	EC50 (adult C. felis fleas [1])	mortality at 500 ppm (Plutella xylostella)	EC50 [2]	pest or weed control at 500 ppm (Myzus persicae)	EC50 (adult C. felis fleas [3]; [5])	EC50 (adult C. felis fleas [3]; [6])	EC50 [4]	mortality at 500 ppm (Spodoptera litura)	mortality at 50 ppm (Spodoptera litura)	mortality at 50 ppm (Plutella xylostella)	pest or weed control at 50 ppm (Myzus persicae)	mortality at 50 ppm (Laodelphax striatellus)	EC50 (A. aegypti L1 larvae)
CCS(=N)(=O)c1cc(-c2noc(C3CC3)n2)cnc1-c1nc2cc(C(F)(F)C(F)(F)F)nnc2n1C (stereo not shown) [Compound 8]	100%	1000 to 10000 nM	100%	10000 to 100000 nM	100%	< 1000 nM	643 nM	< 10000 nM						
CCS(=N)(=O)c1cc(-c2noc(C3(F)CC3)n2)cnc1-c1nc2cc(C(F)(F)C(F)(F)F)cnc2n1C (stereo not shown) [Compound 5]	100%	1000 to 10000 nM	100%	10000 to 100000 nM	100%	1000 to 10000 nM	1080 nM	< 10000 nM	100%					
CCS(=N)(=O)c1cc(-n2cc(C3CC3)cn2)cnc1-c1nc2cc(C(F)(F)C(F)(F)F)cnc2n1C (stereo not shown) [Compound 27]	100%	< 1000 nM	100%	< 10000 nM	100%	< 1000 nM	177 nM	< 10000 nM	100%					
CCS(=N)(=O)c1cc(-c2cnn(C3CC3)c2)cnc1-c1nc2cc(C(F)(F)C(F)(F)F)nnc2n1C (stereo not shown) [Compound 30]	100%	< 1000 nM	100%	10000 to 100000 nM	100%	< 1000 nM	519 nM	< 10000 nM	100%					
CCS(=N)(=O)c1cc(-c2cc(C3CC3)on2)cnc1-c1nc2cc(C(F)(F)C(F)(F)F)cnc2n1C (stereo not shown) [Compound 24]	100%	< 1000 nM	100%	10000 to 100000 nM	100%	< 1000 nM	839 nM	< 10000 nM		100%	100%	100%		
CCS(=N)(=O)c1cc(-c2noc(C3(C(F)(F)F)CC3)n2)cnc1-c1nc2cc(C(F)(F)C(F)(F)F)cnc2n1C (stereo not shown) [Compound 3]		< 1000 nM		10000 to 100000 nM		< 1000 nM	448 nM	< 10000 nM		100%	100%	100%	100%	
CCS(=N)(=O)c1cc(-c2cn(C3CC3)cn2)cnc1-c1nc2cc(C(F)(F)C(F)(F)F)cnc2n1C (stereo not shown) [Compound 21]	100%	< 1000 nM	100%		100%	< 1000 nM	403 nM	10000 to 100000 nM	100%					
CCS(=N)(=O)c1cc(-c2noc(C3(C(F)(F)F)CC3)n2)cnc1-c1nc2cc(C(F)(F)C(F)(F)F)nnc2n1C (stereo not shown) [Compound 31]		< 1000 nM		10000 to 100000 nM		< 1000 nM	78 nM	< 10000 nM			100%	100%	100%	< 40 nM
CCS(=N)(=O)c1cc(-c2cc(C3CC3)sn2)cnc1-c1nc2cc(C(F)(F)C(F)(F)F)cnc2n1C (stereo not shown) [Compound 25]	100%	< 1000 nM				1000 to 10000 nM		10000 to 100000 nM		100%	100%	100%		
CCS(=N)(=O)c1cc(-c2cc(C3CC3)no2)cnc1-c1nc2cc(C(F)(F)C(F)(F)F)cnc2n1C (stereo not shown) [Compound 19]	100%	< 1000 nM	100%	10000 to 100000 nM	100%	1000 to 10000 nM		< 10000 nM	100%					
CCS(=N)(=O)c1cc(-c2cc(C3CC3)ns2)cnc1-c1nc2cc(C(F)(F)C(F)(F)F)cnc2n1C (stereo not shown) [Compound 20]		< 1000 nM		10000 to 100000 nM		1000 to 10000 nM		< 10000 nM		100%	100%		100%	
